Test results reported in publication PMC5318439, “The Novel Toll-Like Receptor 2 Agonist SUP3 Enhances Antigen Presentation and T Cell Activation by Dendritic Cells” (Frontiers in Immunology, 2017).
Where a SMILES comes first, the peptide text is derived from it. The star is where a group is joined. X1 = CCCCCCCCCCCCCCNC(=O)OC[C@H](C*)OC(=O)NCCCCCCCCCCCCCC; Palmitoyl = CCCCCCCCCCCCCCCC(=O)*

Tests used:
[1] = system: RAW 264.7 cells; experiment: TNFα production by WT RAW 264.7 cells; assay type: cell-based; conditions: 500 nM, 8 h
Experimental: Splenic DCs (5 × 10^5 cells/mL) were stimulated by Pam3 (200 nM), SUP3 (200 nM), or CpG ODN 1668 (20 nM; Adipogen IAX-200-001) in the GM-CSF (20 ng/mL) supplemented medium for indicated periods. Cell culture supernatants were harvested at indicated time points and stored at −40°C. […] For in vivo administration, Pam3 (2 nmol per mouse), SUP3 (2 nmol per mouse), or LPS (1 µg per mouse) were intravenously (i.v.) injected via tail veins. Serum was obtained through tail vein bleeding and centrifuged after coagulation and stored at −40°C. Cytokines (IL-6, eBioscience 88-7064; TNFα, eBioscience 88-7324; IL-12p40, BioLegend 431604), chemokine (MIP1α, R&D Systems DY450-05), and total IgM (eBioscience, 88-50470) were quantified by ELISA kits following the instructions of manufacturers.
Figure 1 Specificity and activity of novel TLR2 agonist SUP3. (A) Schematic chemical structure of SUP3. (B) Surface expression of TLR2 in wild-type (WT) and Tlr2^−/− RAW 264.7 cell lines. Gray shadows represented isotype control and black lines represented TLR2. (C) TNFα production by RAW 264.7 cells upon stimulation with lipopolysaccharide (LPS) (1 µg/mL), Pam3CSK4 (Pam3 hereafter) (500 nM), or SUP3 (500 nM) for 8 h. […] The production of cytokines IL-6 and TNFα in culture supernatant was determined by ELISA. *p < 0.05, ****p < 0.0001, “n.s.” indicates statistically non-significant.

[2] = system: CD8^+ cDCs; experiment: Costimulatory and MHC molecule expression on CD8+ cDCs in vitro; assay type: cell-based, mice; conditions: 200 nM, GM-CSF 20 ng/mL, 24 h, flow cytometry
Experimental: Single cell suspensions were prepared, and cells were stained by fluorescence-conjugated antibodies and viability dye 7-AAD (eBioscience 00-6993) at 4°C for 30 min in the dark. Cells were washed, resuspended, and analyzed on LSR Fortessa (Becton Dickinson).
Figure 4 SUP3 stimulated maturation of CD8^+ conventional dendritic cells (cDCs). (A) Purified CD8^+ cDCs were treated with SUP3 (200 nM) or Pam3 (200 nM) in the presence of granulocyte-macrophage colony-stimulating factor (GM-CSF) (20 ng/mL) for 24 h. The surface expression of costimulatory and major histocompatibility complex (MHC) molecules were then analyzed by flow cytometry. Representative data from three independent experiments were shown. “Isotype” represented relative isotype antibody staining of Pam3 or SUP3 stimulated cells. (B) SUP3 (2 nmol per mouse), Pam3 (2 nmol per mouse), or PBS were i.v. injected into mice for 1 h. Splenic CD8^+ cDCs were enriched, and surface expression of CD40 and CD86 was analyzed by flow cytometry. Representative data from two independent experiments with three mice for each group were shown. […] Supernatants were harvested 24 and 48 h post-stimulation, and cytokines were measured by ELISA. […]

[3] = system: NF-κB and MAPK pathways; experiment: Immunoblot of NF-κB and MAPK signaling in CD8+ cDCs; assay type: cell-based, mice; conditions: 200 nM, 0–120 min, western blot
Experimental: Immunoblot assay was performed as described elsewhere ([40], [41]). Briefly, whole-cell lysates were prepared by direct lysis in SDS loading buffer. Lysates were separated by 10% SDSPAGE and transferred to a polyvinylidene fluoride membrane (Millipore IPVH00010) for probing with antibody. Antibodies against phosphorylated NF-κB p65 (p-p65) (Ser 536) (Clone 93H1), p-SAPK/JNK (Thr183/Tyr185) (Clone 81E11), SAPK/JNK (Clone 56G8), p-p38 (Thr180/Tyr182) (Clone 3D7), and p38 (Clone D13E1) were purchased from Cell Signaling Technology. Antibodies against IκBα ([…]), p-ERK (Clone E-4), and ERK (Clone K-23) were purchased from Santa Cruz Biotech. The chemiluminescence signals were captured by Amersham Image 600 system (GE Healthcare).
Figure 4 SUP3 stimulated maturation of CD8^+ conventional dendritic cells (cDCs). (A) Purified CD8^+ cDCs were treated with SUP3 (200 nM) or Pam3 (200 nM) in the presence of granulocyte-macrophage colony-stimulating factor (GM-CSF) (20 ng/mL) for 24 h. The surface expression of costimulatory and major histocompatibility complex (MHC) molecules were then analyzed by flow cytometry. Representative data from three independent experiments were shown. […] Splenic CD8^+ cDCs were enriched, and surface expression of CD40 and CD86 was analyzed by flow cytometry. […] Supernatants were harvested 24 and 48 h post-stimulation, and cytokines were measured by ELISA. […]

Compound	TNFα production by WT RAW cells [1]	expression of CD40, CD80, CD86, and MHC-II on CD8+ cDCs [2]	NF-κB and MAPK signaling (p-p65, IκBα, p-ERK, p-JNK, p-p38) in CD8+ cDCs [3]
Pam3CSK4 [reference compound]	large amount of TNFα production	substantial upregulation	
CCCCCCCCCCCCCCCC(=O)N[C@@H](CSC[C@@H](COC(=O)NCCCCCCCCCCCCCC)OC(=O)NCCCCCCCCCCCCCC)C(=O)NCC(=O)N[C@@H](CCCCN)C(=O)N[C@@H](CCCCN)C(=O)N[C@@H](CCCCN)C(=O)O [SUP3, (2S,5S,8S,14R,18R)-2,5,8-tris(4-aminobutyl)-4,7,10,13,21-pentaoxo-14-palmitamido-18-((tetradecylcarbamoyl)oxy)-20-oxa-16-thia-3,6,9,12,22-pentaazahexatriacontan-1-oic acid] (Palmitoyl-C(X1)GKKK-OH)	large amount of TNFα production	substantial upregulation	induced phosphorylation of p65 and degradation of IκBα and enhanced phosphorylation of ERK, JNK, and p38
